Experiments:
telomerase = settings: binds to the active site of telomerase RNA; cited from earlier work
H2087 cells [1] = assay: TRF analysis of telomere length in H2087 cells under long-term imetelstat treatment; format: cell-based; settings: 1 μM imetelstat 3 times per week, 10 and 18 weeks treatment
Protocol: (§1) FIGS. 2A-2C. Measuring TL in long-term telomerase inhibition with imetelstat (1 μM) treatment and after a removal of drug in H2087 cells. (2A) Isolated DNA from H2087 cells with 1 μM imetelstat treatment for 0, 10 and 18 weeks, and post released from 18 weeks for 1, 2, 3, 4, and 5 weeks was digested with the same REs for TeSLA (BfaI/CviAII/MseI/NdeI) and then separated with 0.7% agarose gel for TRF analysis. (2B) Interphase Q-FISH; cells from H2087 with 0, and 18 weeks 1 μM imetelstat treatment, and 5 weeks after drug removal were used to measure TL by Q-FISH. The results were quantified using TFL-Telo software (n: numbers of nuclei were quantified for each time point as indicated above). (2C) Results of TeSLA using DNA as indicated. Four TeSLA reactions (30 pg of each reaction) were performed for each DNA sample.
(§2) To further examine the utility of TeSLA in studying telomere dynamics, the inventors evaluated TL dynamics in a telomerase positive non-small cell lung cancer (NSCLC) cell line (H2087). These cells were subjected to long-term telomerase inhibition treatment and then released to observe the dynamic of telomere re-elongation. The results were compared using TeSLA, TRF and telomere Q-FISH. […] In contrast, TeSLA is able to detect TL in both imetelstat treated cells and cells post released from drug in a much more quantitative manner (FIG. 2C). […]

NSCLC cell lines = settings: long-term treatment, multiple NSCLC cell lines; cited from earlier work
H2087 cells [2] = assay: Interphase Q-FISH telomere length in H2087 cells under long-term imetelstat treatment; format: cell-based; settings: 1 μM imetelstat, 18 weeks treatment compared to 0 weeks and 5 weeks after drug removal
Protocol: as §1, §2

Substance: imetelstat
- telomerase activity (telomerase): robustly inhibits telomerase activity
- average TL change by TRF analysis (H2087 cells [1]): average TL shortening
- average TL change (NSCLC cell lines): shorten average TL
- telomere signals by Q-FISH (H2087 cells [2]): only a few telomere signals with relatively low intensity were detected
